In US20250388565A1, “ESTROGEN RECEPTOR ALPHA DEGRADERS AND METHODS OF USE THEREOF” (Relay Therapeutics, Inc., priority 2022, published 2025):

Molecular target: T1, ERα protein (HiBiT-tagged) in ESR1_HiBiT KI MCF7 cells (Homo sapiens, UniProt P03372)
T1 sequence (P03372 1-595): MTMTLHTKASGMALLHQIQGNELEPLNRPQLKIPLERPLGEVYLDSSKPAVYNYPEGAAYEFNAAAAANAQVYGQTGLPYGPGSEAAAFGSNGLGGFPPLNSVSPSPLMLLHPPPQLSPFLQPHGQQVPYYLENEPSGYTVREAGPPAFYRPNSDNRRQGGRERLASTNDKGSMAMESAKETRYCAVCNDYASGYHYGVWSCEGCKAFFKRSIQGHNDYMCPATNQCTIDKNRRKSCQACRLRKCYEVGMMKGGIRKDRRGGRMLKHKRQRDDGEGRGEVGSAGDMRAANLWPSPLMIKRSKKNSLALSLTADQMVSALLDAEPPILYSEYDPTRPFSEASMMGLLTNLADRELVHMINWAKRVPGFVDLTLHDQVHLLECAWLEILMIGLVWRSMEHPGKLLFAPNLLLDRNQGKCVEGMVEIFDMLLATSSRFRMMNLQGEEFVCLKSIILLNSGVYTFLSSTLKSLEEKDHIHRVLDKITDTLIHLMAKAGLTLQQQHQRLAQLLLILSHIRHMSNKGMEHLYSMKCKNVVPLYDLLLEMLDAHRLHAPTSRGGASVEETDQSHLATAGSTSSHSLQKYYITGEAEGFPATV
Test: Nano Glo HiBiT Lytic Degradation Assay
Format: cell-based
Conditions: 6 hours with compound, 14-point dose response 1:3, bell-shape curve fit, half-maximal effect of first Hill model, read-out: MCF7 ESR1 HiBiT - (DC50)
Outline: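 ESR1_HiBiT knock-in MCF7 cells were seeded 24 h before treatment, then exposed to compounds for 6 h at 37° C (14-point 1:3 curves, 10 mM top stock, 0.1% DMSO final, duplicates). HiBiT-ERα was read by lytic LgBiT luminescence, background-subtracted and normalized to DMSO. DC50 was taken from the half-maximal point of the first Hill component of a bell-shaped fit.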

| Structure (SMILES) | DC50 |
| --- | --- |
| O=C1CC[C@H](N2Cc3cc(N4CCN(CC5CCN(c6ccc(C7c8ccc(O)cc8CCC7c7ccncc7)cc6)CC5)CC4)ccc3C2=O)C(=O)N1 (stereo in doubt) [Compound I-133, (S)-3-(5-(4-((1-(4-((1R,2S)-6-hydroxy-2-(pyridine-4-yl)-1,2,3,4-tetrahydronaphthalen-1-yl)phenyl)piperidin-4-yl)methyl)piperazin-1-yl)-1-oxoisoindolin-2-yl)piperidine-2,6-dione] | ≥ 10000 nM |
| O=C1CC[C@H](N2Cc3cc(N4CCN(CC5CCN(c6ccc([C@@H]7c8ccc(O)cc8CO[C@@H]7c7ccc(F)cc7)cc6)CC5)CC4)ccc3C2=O)C(=O)N1 [Compound I-35, (S)-3-(5-(4-((1-(4-((3S,4R)-3-(4-fluorophenyl)-7-hydroxyisochroman-4-yl)phenyl)piperidin-4-yl)methyl)piperazin-1-yl)-1-oxoisoindolin-2-yl)piperidine-2,6-dione] | 0.3 nM |
| NC(=O)CCC(C(=O)O)N1Cc2cc(N3CCN(CC4CCN(c5ccc([C@@H]6c7ccc(O)cc7CO[C@@H]6c6ccccc6)cc5)CC4)CC3)ccc2C1=O (some centres unmarked) [Compound I-400] | 7.75 nM |
| CC[C@@H]1CCc2cc(O)ccc2[C@@H]1c1ccc(N2CCC(CN3CCN(c4ccc5c(c4)CN([C@H]4CCC(=O)NC4=O)C5=O)CC3)CC2)cc1 (single isomer, unassigned) [Compound I-112] | 0.14 nM |
| O=C1CC[C@H](N2Cc3cc(N4CCN(CC5CCN(c6ccc([C@@H]7c8ccc(O)cc8CC[C@@H]7c7ccccc7)nc6)CC5)CC4)ccc3C2=O)C(=O)N1 [II-78] | 1.37 nM |
| CC1(C)CC([C@@H]2CCc3cc(O)ccc3[C@@H]2c2ccc(N3CCC(CN4CCN(c5ccc6c(c5)CN([C@H]5CCC(=O)NC5=O)C6=O)CC4)CC3)cc2)CC(C)(C)C1 [Compound I-117, (35)-3-[5-[4-[[1-[4-[(1R,2R)-6-hydroxy-2-(3,3,5,5-tetramethylcyclohexyl)tetralin-1-yl]phenyl]-4-piperidyl]methyl]piperazin-1-yl]-1-oxo-isoindolin-2-yl]piperidine-2,6-dione] | ≥ 10000 nM |
| O=C1CC[C@H](N2Cc3cc(N4CCN(CCCCCOc5ccc([C@@H]6c7ccc(O)cc7CC[C@@H]6c6ccccc6)cc5)CC4)ccc3C2=O)C(=O)N1 [II-66] | 0.33 nM |
| Cn1c(=O)n([C@H]2CCC(=O)NC2=O)c2ccc(N3CCN(CC4CCN(c5ccc([C@@H]6c7ccc(O)cc7CO[C@@H]6c6ccccc6)cc5)CC4)CC3)cc21 (single isomer, unassigned) [Compound I-387] | 0.16 nM |
| Cc1ccc2c(c1)CC[C@H](c1ccccc1)[C@@H]2c1ccc(N2CCC(CN3CCN(c4ccc5c(c4)CN([C@H]4CCC(=O)NC4=O)C5=O)CC3)CC2)cc1 [Compound I-50, (S)-3-(5-(4-((1-(4-((1R,2S)-6-methyl-2-phenyl-1,2,3,4-tetrahydronaphthalen-1-yl)phenyl)piperidin-4-yl)methyl)piperazin-1-yl)-1-oxoisoindolin-2-yl)piperidine-2,6-dione] | ≥ 10000 nM |
| Cn1nc(N2CCC(=O)NC2=O)c2ccc(N3CCN(CC4CCN(c5ccc([C@@H]6c7ccc(O)cc7CC[C@@H]6c6ccccc6)cc5)CC4)CC3)cc21 [Compound I-299, 1-(6-(4-((1-(4-((1R,2S)-6-hydroxy-2-phenyl-1,2,3,4-tetrahydronaphthalen-1-yl)phenyl)piperidin-4-yl)methyl)piperazin-1-yl)-1-methyl-1H-indazol-3-yl)dihydropyrimidine-2,4 (1H,3H)-dione] | 1 nM |
| CC(C)[C@@H]1CCc2cc(O)ccc2[C@@H]1c1ccc(N2CCC(CN3CCN(c4ccc5c(c4)CN(C4CCC(=O)NC4=O)C5=O)CC3)CC2)cc1 (stereo in doubt) [Compound I-129, (R)-3-(5-(4-((1-(4-((1S,2S)-6-hydroxy-2-isopropyl-1,2,3,4-tetrahydronaphthalen-1-yl)phenyl)piperidin-4-yl)methyl)piperazin-1-yl)-1-oxoisoindolin-2-yl)piperidine-2,6-dione] | 5 nM |
